According to publication PMC10689823, “Discovery of a Drug-like, Natural Product-Inspired DCAF11 Ligand Chemotype” (Nature Communications, 2023):
Values joined by “and” are separate entries in the source; they are usually repeats but may differ in a detail not shown here. Equal entries are not always repeated.

Tests used:
[1] = target: T1, SIRT2 (Homo sapiens, UniProt Q8IXJ6); assay: SIRT activity assay SIRT2; type: biochemical; settings: SIRT2 activity in presence of 3 µM compound 42
T1 construct: purchased BPS Bioscience 50087 (assay kit)
Experimental: (§1) In vitro enzymatic SIRT assays were performed by BPS Bioscience for SIRT1, SIRT2, SIRT3, SIRT5 and SIRT6 using the respective SIRT Fluorogenic Assay Kit (BPS Bioscience, catalog numbers 50081, 50087, 50088, 50085 and 50022). The compound was pre-incubated in for 30 min at room temperature in a mixture containing SIRT assay buffer, 5 μg BSA, SIRT enzyme. Afterwards, the enzymatic reaction was initiated by the addition of SIRT substrate to a final concentration of 10 μM. The enzymatic reaction proceeded for 30 min at 37 °C followed by the addition of 2 x SIRT Developer and incubation at room temperature for 15 min. Fluorescence intensity was measured at an ex/em 360/460 nm using a Tecan Infinite M1000 microplate reader.

[2] = test system: wildtype and mutant 482 kinases; assay: Kinase profiling (SelectScreen); type: biochemical; settings: 10 µM; panel of 482 wildtype and mutant kinases
Experimental: Compound 42 was profiled in duplicate at 10 µM against wildtype and mutant 482 kinases using the SelectScreen Kinase profiling services (ThermoFisher Scientific, USA) using enzymatic assays (Z’-Lyte and Adapta technology) or binding assays (LanthaScreen Eu kinase binding assays) (see https://www.thermofisher.com/de/de/home/products-and-services/services/custom-services/screening-and-profiling-services/selectscreen-profiling-service/selectscreen-kinase-profiling-service.html).

[3] = target: T2, SIRT3 (Homo sapiens, UniProt Q9NTG7); assay: SIRT activity assay SIRT3; type: biochemical; settings: SIRT3 activity in presence of 3 µM compound 42
T2 construct: purchased BPS Bioscience 50088 (assay kit)
Experimental: as §1

[4] = target: T3, SIRT5 (Homo sapiens, UniProt Q9NXA8); assay: SIRT activity assay SIRT5; type: biochemical; settings: SIRT5 activity in presence of 3 µM compound 42
T3 construct: purchased BPS Bioscience 50085 (assay kit)
Experimental: as §1

[5] = test system: BRD2; assay: In-Cell Western for BRD2 levels in Hep G2 cells; type: cell-based; settings: then 9 (10 μM, 4 h)
Experimental: Hep G2 cells were seeded in 96-well plates and incubated for 24 h. Compounds were added for the indicated time at the indicated concentration. Cells were then washed once with PBS and fixed with 4% paraformaldehyde for 30 min at room temperature. The fixed cells were permeabilized with 0.5 % Triton-X100 for 15 min followed by block with Intercept® Blocking Buffer (LI-COR Biosciences, 927-70001) for 1 h at room temperature. Primary antibodies for BRD2 (1:800) and Vinculin (1:2000) were diluted with LI-COR buffer and incubated with the cells at 4 °C overnight. Cells were washed with PBS-T, and the secondary antibodies conjugated to IRDye (1:1000, LI-COR Biosciences) were added to the cells for 1 h at room temperature. After washing the cells, the signal was recorded with the Odyssey® CLx Infrared Imaging System (LI-COR Biosciences) and the protein levels were analyzed by Image Studio (LI-COR Biosciences). BRD2 protein levels were normalized to the levels of reference protein vinculin.

[6] = target: T4, SIRT6 (Homo sapiens, UniProt Q8N6T7); assay: SIRT activity assay SIRT6; type: biochemical; settings: SIRT6 activity in presence of 3 µM compound 42
T4 construct: purchased BPS Bioscience 50022 (assay kit)
Experimental: as §1

[7] = target: T5, SIRT1 (Homo sapiens, UniProt Q96EB6); assay: SIRT activity assay SIRT1; type: biochemical; settings: SIRT1 activity in presence of 3 µM compound 42
T5 construct: purchased BPS Bioscience 50081 (assay kit)
Experimental: as §1

T1 sequence (Q8IXJ6 whole entry): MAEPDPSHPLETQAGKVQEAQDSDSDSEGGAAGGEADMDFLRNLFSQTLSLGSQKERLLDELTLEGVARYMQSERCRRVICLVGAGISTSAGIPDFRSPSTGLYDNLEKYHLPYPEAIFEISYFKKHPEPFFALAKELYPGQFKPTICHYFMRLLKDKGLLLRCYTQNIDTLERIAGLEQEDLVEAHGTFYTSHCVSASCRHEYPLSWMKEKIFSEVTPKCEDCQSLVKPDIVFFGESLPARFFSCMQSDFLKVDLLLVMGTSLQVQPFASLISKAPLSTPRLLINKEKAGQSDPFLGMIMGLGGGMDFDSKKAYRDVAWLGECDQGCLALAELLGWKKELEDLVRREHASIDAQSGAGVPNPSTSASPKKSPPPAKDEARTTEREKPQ
T2 sequence (Q9NTG7 whole entry): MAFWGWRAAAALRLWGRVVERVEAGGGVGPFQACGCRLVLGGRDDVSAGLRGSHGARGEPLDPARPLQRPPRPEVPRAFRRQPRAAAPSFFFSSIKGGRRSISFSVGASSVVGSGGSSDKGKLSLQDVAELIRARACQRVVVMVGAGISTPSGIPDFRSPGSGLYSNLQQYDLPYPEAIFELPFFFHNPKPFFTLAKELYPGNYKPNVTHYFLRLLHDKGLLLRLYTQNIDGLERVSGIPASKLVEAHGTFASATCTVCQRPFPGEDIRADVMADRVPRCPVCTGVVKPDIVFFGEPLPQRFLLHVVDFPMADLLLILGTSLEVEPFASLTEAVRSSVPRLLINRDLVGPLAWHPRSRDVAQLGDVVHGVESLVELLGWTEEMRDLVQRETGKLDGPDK
T4 sequence (Q8N6T7 whole entry): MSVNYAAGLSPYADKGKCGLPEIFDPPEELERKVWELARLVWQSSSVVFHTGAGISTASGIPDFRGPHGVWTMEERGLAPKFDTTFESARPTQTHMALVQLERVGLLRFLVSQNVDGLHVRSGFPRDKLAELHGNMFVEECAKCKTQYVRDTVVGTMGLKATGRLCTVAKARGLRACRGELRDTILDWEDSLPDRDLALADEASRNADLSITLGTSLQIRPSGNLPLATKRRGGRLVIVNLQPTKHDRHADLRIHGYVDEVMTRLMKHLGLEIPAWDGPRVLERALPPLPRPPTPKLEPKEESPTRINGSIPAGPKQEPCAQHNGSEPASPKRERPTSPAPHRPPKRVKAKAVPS
T3 sequence (Q9NXA8 37-310): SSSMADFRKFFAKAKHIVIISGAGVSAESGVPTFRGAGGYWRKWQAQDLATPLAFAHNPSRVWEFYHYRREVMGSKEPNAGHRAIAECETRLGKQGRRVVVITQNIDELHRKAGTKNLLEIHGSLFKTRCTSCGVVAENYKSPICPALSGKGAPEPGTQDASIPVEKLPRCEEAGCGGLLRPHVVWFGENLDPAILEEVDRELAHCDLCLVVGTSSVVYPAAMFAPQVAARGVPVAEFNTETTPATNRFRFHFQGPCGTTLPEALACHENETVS
T5 sequence (Q96EB6 whole entry): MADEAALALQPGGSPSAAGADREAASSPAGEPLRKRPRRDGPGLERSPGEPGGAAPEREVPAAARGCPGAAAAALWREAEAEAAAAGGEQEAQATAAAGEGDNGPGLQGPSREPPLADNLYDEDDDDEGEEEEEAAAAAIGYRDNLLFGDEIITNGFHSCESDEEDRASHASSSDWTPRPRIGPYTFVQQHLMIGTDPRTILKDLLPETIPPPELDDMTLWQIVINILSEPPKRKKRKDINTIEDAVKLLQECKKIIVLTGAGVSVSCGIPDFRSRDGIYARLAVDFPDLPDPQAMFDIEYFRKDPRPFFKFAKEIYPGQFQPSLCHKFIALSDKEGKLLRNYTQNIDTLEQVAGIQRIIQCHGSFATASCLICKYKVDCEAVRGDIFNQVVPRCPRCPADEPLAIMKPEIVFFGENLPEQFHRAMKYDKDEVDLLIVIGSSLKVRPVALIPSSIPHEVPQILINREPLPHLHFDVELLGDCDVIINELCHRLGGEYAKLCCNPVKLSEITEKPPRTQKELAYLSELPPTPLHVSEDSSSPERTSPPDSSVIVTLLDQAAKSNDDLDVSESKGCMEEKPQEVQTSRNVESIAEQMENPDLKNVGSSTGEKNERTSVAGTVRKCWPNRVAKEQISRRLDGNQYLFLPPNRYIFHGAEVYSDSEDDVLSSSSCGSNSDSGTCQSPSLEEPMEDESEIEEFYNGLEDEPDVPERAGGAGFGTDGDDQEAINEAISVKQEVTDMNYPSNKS

O=C1Nc2ccc(Br)cc2C1=Cc1cc(Br)c(OCCO)c(Br)c1 [Compound 42]
Activity [%] (N=1) [1]: 104%
Activity [%] (N=2) [1]: 111%
number of wildtype kinases inhibited by more than 50 % [2]: seven
Activity [%] (N=1) [3]: 67%
Activity [%] (N=2) [3]: 67%
Activity [%] (N=1) [4]: 95%
Activity [%] (N=2) [4]: 98%
BRD2/Vinculin intensity (relative to control group) ([5]; Hep G2 cells, pretreated with compound at 30 μM 1 h, single repeats, Fig. 4h): 46.6052 and 52.1075 and 59.9094 and 63.5387
Value (Mean ± SD): Relative BRD2 levels remaining in Hep G2 cells after treatment with compounds followed by treatment with 9, with DMSO control for normalization ([5]; qualitative ICW assay, pretreated at 30 μM 1 h, Supplementary Table 1): 55.54 ± 6.61
Activity [%] (N=1) [6]: 87%
Activity [%] (N=2) [6]: 90%
Activity [%] (N=1) [7]: 93%
Activity [%] (N=2) [7]: 97%
